This note sets out measurements from ChEMBL document CHEMBL1201862, “PubChem BioAssay data set” (2004).

SMILES strings stand for the structures.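 Values below derive from 48-hour exposures of cells grown in 96-well plates, with endpoints linearly interpolated between the two concentrations bracketing the appropriate inhibition level. GI50 = concentration required for 50% inhibition of growth.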 Activity calls are given as the source filed them. Rule as the data show it: active = GI50 up to about 1.1 µM and inactive = higher.

Among the test systems are NCI-H226; SW-620; SNB-19; SN12C; DU-145; MDA-MB-435; MOLT-4; OVCAR-8; HCT-15; NCI-H460; SK-MEL-28; NCI-H23; CAKI-1; SF-539; SR; A549; EKVX; UACC-62; SNB-75.
What all share (assay): inhibition of tumour cell growth, NCI panel, 48 h

In the case of `C=C1CCCC(C)(C)[C@H]1C/C=C1\CCOC1=O`, the GI50 is 9.89 µM (inactive) in the assay on NCI-H226; 18.7 µM (inactive) in the assay on SW-620; 16.8 µM (inactive) in the assay on SNB-19; 18.2 µM (inactive) in the assay with SN12C; 13.2 µM (inactive) in the assay on DU-145; 10.3 µM (inactive) in the assay with MDA-MB-435. The GI50 in the assay with MOLT-4 is 10.6 µM (inactive); in the assay on OVCAR-8 it was 17.7 µM (inactive); with HCT-15, 14.5 µM; with NCI-H460, 11.8 µM (inactive); in the assay with SK-MEL-28, 16.1 µM (inactive); with NCI-H23, 14.2 µM (inactive). The GI50 in the assay on CAKI-1 is 16.6 µM (inactive); in the assay with SF-539, 17.2 µM (inactive); in the assay with SR it was 12.4 µM (inactive); in the assay on A549, 13.7 µM (inactive); in the assay with EKVX, 15.9 µM (inactive); in the assay on UACC-62 it was 29.4 µM (inactive).

Regarding `COC(=O)c1c[nH]c(=O)[nH]c1=O` [ISOOROTIC ACID METHYL ESTER], the GI50 with SW-620, with SNB-19, in the assay on SN12C, in the assay on DU-145, in the assay on MDA-MB-435 and in the assay with MOLT-4 was > 100 µM (inactive) throughout. Also, the GI50 in the assay with OVCAR-8 was > 100 µM (inactive); in the assay on HCT-15, over 100 µM; in the assay on NCI-H460, > 100 µM (inactive); with SK-MEL-28, > 100 µM (inactive); with NCI-H23, > 100 µM (inactive); with CAKI-1, > 100 µM (inactive). For the same molecule, the GI50 in the assay on SF-539, in the assay on SR, with A549, with EKVX, with UACC-62 and with SNB-75 was > 100 µM (inactive) throughout.

With `CC1=NN(c2nc(N)nc(-c3ccccc3S(N)(=O)=O)n2)C(C)(C)C1`, the GI50 was 9.2 µM (inactive) with NCI-H226; 25.8 µM (inactive) in the assay on SW-620; 7.38 µM (inactive) in the assay on DU-145; 37.8 µM (inactive) in the assay with MDA-MB-435; 5.19 µM (inactive) in the assay with MOLT-4; 16 µM (inactive) in the assay with OVCAR-8. Besides, the GI50 was 2.76 µM in the assay on HCT-15; 5.07 µM (inactive) with NCI-H460; 27.9 µM (inactive) in the assay on SK-MEL-28; 20.1 µM (inactive) in the assay with NCI-H23; 3.37 µM (inactive) in the assay with CAKI-1; 27.4 µM (inactive) in the assay with SF-539. For the same molecule, the GI50 with SR is 5.85 µM (inactive); with EKVX, 36.1 µM (inactive).

As to `COc1ccc(-c2cc3cc(Cl)cc(Cl)c3oc2=O)cc1OC`, the GI50 is 43.9 µM (inactive) in the assay with NCI-H226; > 100 µM (inactive) with SW-620; 28.2 µM (inactive) in the assay with SNB-19; 39.8 µM (inactive) in the assay on SN12C; > 100 µM (inactive) with DU-145; 65 µM (inactive) in the assay on MDA-MB-435. In addition, the GI50 with MOLT-4 was > 100 µM (inactive); in the assay on OVCAR-8, 65.8 µM (inactive); in the assay on HCT-15 it was 48.8 µM; in the assay on NCI-H460, 36.7 µM (inactive); in the assay on SK-MEL-28, 94.2 µM (inactive); in the assay on NCI-H23, 36.5 µM (inactive). Further, the GI50 with CAKI-1 was > 100 µM (inactive); in the assay on SF-539, 81.7 µM (inactive); in the assay on SR, 82 µM (inactive); with A549, 92.3 µM (inactive); in the assay with EKVX it was 92.9 µM (inactive); in the assay on UACC-62, 63.2 µM (inactive).

For the molecule `CC1CCOc2ccc(cc2)/C=N\c2ccc(cc2)-c2ccc(cc2)/N=C\c2ccc(cc2)OCC1`, the GI50 with NCI-H226, with SW-620, in the assay with SN12C, with DU-145, in the assay with MDA-MB-435 and with MOLT-4 was > 100 µM (inactive) each time. The GI50 is > 100 µM (inactive) in the assay on OVCAR-8; over 100 µM in the assay on HCT-15; > 100 µM (inactive) with NCI-H460; > 100 µM (inactive) in the assay on SK-MEL-28; > 100 µM (inactive) with NCI-H23; > 100 µM (inactive) in the assay with CAKI-1. The GI50 with SF-539, with SR, in the assay on A549 and in the assay with EKVX was > 100 µM (inactive) each time.

With `CN(C)Cc1cc(C(=O)/C=C/c2ccc(Cl)cc2)cc(CN(C)C)c1O`, the GI50 is 22 µM (inactive) with NCI-H226; 6.65 µM (inactive) in the assay with SW-620; 8.75 µM (inactive) with SNB-19; 10.8 µM (inactive) with SN12C; 12.1 µM (inactive) in the assay with DU-145; 13.7 µM (inactive) in the assay with MDA-MB-435. Besides, the GI50 in the assay with MOLT-4 is 16.3 µM (inactive); in the assay with OVCAR-8 it was 7.59 µM (inactive); in the assay on HCT-15, 15.9 µM; in the assay on NCI-H460, 10.1 µM (inactive); in the assay on SK-MEL-28 it was 13.4 µM (inactive); in the assay on NCI-H23 it was 15.7 µM (inactive). The GI50 in the assay on CAKI-1 is 6.05 µM (inactive); in the assay with SF-539, 19.3 µM (inactive); in the assay with SR, 11.1 µM (inactive); in the assay on A549, 8.73 µM (inactive); with EKVX, 12.8 µM (inactive); with SNB-75, 8.75 µM (inactive).

As for `CC(=O)O[C@H]1C[C@H]2[C@@H]([C@H](OC(C)=O)C[C@@H]3CC4(CC[C@@]32C)OOC2(CCCCC2)OO4)[C@@H]2CC[C@H]([C@H](C)CCC(=O)O)[C@@]12C`, the GI50 with NCI-H226 was 7.29 µM (inactive); in the assay with SW-620, 10.2 µM (inactive); in the assay on SNB-19, 6.71 µM (inactive); with SN12C, 6.81 µM (inactive); in the assay on DU-145 it was 10.4 µM (inactive); in the assay on MDA-MB-435, 5.75 µM (inactive). Also, the GI50 in the assay with MOLT-4 is 9.02 µM (inactive); in the assay with OVCAR-8 it was 4.08 µM (inactive); with HCT-15, 4.39 µM; with NCI-H460, 4.43 µM (inactive); with SK-MEL-28, 11.4 µM (inactive); in the assay on NCI-H23 it was 4.13 µM (inactive). The GI50 was 7.1 µM (inactive) in the assay with CAKI-1; 7.85 µM (inactive) with SF-539; 2.44 µM (inactive) in the assay on SR; 2.66 µM (inactive) with A549; 1.95 µM (inactive) with EKVX; 3.61 µM (inactive) in the assay with SNB-75.

Take `COC(=O)CCC(C)[C@H]1CCC2C3C(C[C@H](OC(C)=O)[C@@]21C)[C@@]1(C)CCC2(C[C@H]1C[C@H]3OC(C)=O)OOC1(CCCCCCC1)OO2` (stereo partly drawn): the GI50 with NCI-H226 is 6.79 µM (inactive); with SW-620 it was 6.3 µM (inactive); in the assay on SNB-19 it was > 100 µM (inactive); in the assay on SN12C, 23.3 µM (inactive); with DU-145 it was 6.58 µM (inactive); with MDA-MB-435, 18.4 µM (inactive). The GI50 is 3.12 µM (inactive) with MOLT-4; 4.82 µM (inactive) in the assay on OVCAR-8; 5.52 µM in the assay with HCT-15; 3.24 µM (inactive) with NCI-H460; > 100 µM (inactive) in the assay with SK-MEL-28; 6.55 µM (inactive) in the assay on NCI-H23. Further, the GI50 in the assay with CAKI-1 is 2.55 µM (inactive); in the assay with SF-539, 18.6 µM (inactive); with SR it was 2.29 µM (inactive); in the assay with A549, 4.56 µM (inactive); in the assay on EKVX, 1.36 µM (inactive); in the assay with SNB-75, 6.35 µM (inactive).
